# Tests used:
# PHBPU [1] = assay: Post-emergence action at 320 g/ha against PHBPU; type: in vivo; conditions: visual rating about 3 weeks after treatment vs untreated controls
# Summary of the method: (§1)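 Weeds were sown in sandy loam, grown in a greenhouse and sprayed at the one-leaf stage, 2 to 3 weeks after sowing, with WP or EC formulations as aqueous suspension or emulsion plus 0.5% additive at 600 l/ha water. Activity was rated visually after about 3 weeks against untreated controls (100% = plants dead, 0% = like control).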
# SETVI = assay: Post-emergence action at 320 g/ha against SETVI; type: in vivo, Setaria viridis; conditions: visual rating about 3 weeks after treatment vs untreated controls
# Summary of the method: as §1
# VERPE = assay: Pre-emergence action against VERPE, 1280 g/ha; type: in vivo, Veronica persica; conditions: scored visually after about 3 weeks vs untreated controls (100% = plants have died)
# Summary of the method: (§2)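 Sandy loam pots, seeds covered with soil; aqueous WP/EC spray on covering soil, 0.5% additive, 600 L/ha. Greenhouse growth, good conditions. Readout: visual % activity at ~3 weeks (0% = like control, 100% = dead).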
# MATIN [2] = assay: Pre-emergence action at 320 g/ha against MATIN; type: in vivo, Tripleurospermum inodorum (Matricaria inodora); conditions: visual scoring after about 3 weeks vs untreated controls
# Summary of the method: (§3)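 Visual scoring in percent against untreated controls, about 3 weeks after treatment, where 100% means dead plants and 0% means no difference. Compounds were applied as aqueous suspension or emulsion (WP or EC, plus 0.5% additive) onto soil covering freshly sown seeds, at 600 l/ha water.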
# ALOMY [3] = assay: Post-emergence action against ALOMY, 320 g/ha; type: in vivo, Alopecurus myosuroides; conditions: dosage 320 g/ha, visual rating about 3 weeks after treatment vs untreated controls (100% = plants died)
# Summary of the method: as §1
# POLCO = assay: Post-emergence action at 320 g/ha against POLCO; type: in vivo, Fallopia convolvulus (Polygonum convolvulus); conditions: visual rating about 3 weeks after treatment vs untreated controls
# Summary of the method: as §1
# ALOMY [4] = assay: Pre-emergence action against ALOMY, 1280 g/ha; type: in vivo, Alopecurus myosuroides; conditions: visual scoring after about 3 weeks vs untreated controls, 100% = plants have died, 0% = like control plants
# Summary of the method: as §2
# AMARE = assay: Post-emergence action at 320 g/ha against AMARE; type: in vivo, Amaranthus retroflexus; conditions: visual rating about 3 weeks after treatment vs untreated controls
# Summary of the method: as §1
# ABUTH = assay: Post-emergence action at 320 g/ha against ABUTH; type: in vivo, Abutilon theophrasti; conditions: visual rating about 3 weeks after treatment vs untreated controls
# Summary of the method: as §1
# DIGSA = assay: Pre-emergence action against DIGSA, 1280 g/ha; type: in vivo, Digitaria sanguinalis; conditions: visual scoring after about 3 weeks vs untreated controls, 100% = plants have died, 0% = like control plants
# Summary of the method: as §2
# ECHCG = assay: Post-emergence action against ECHCG, 1.28 kg/ha; type: in vivo, Echinochloa crus-galli; conditions: dosage 1280 g/ha, visual rating about 3 weeks after treatment vs untreated controls
# Summary of the method: (§4)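 Greenhouse pot test, sandy loam; weeds sprayed post-emergence at one-leaf stage (2–3 weeks after sowing) with WP or EC formulation plus 0.5% additive, 600 l/ha water. Visual rating after about 3 weeks versus untreated controls, 100% = plants dead, 0% = like control.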
# MATIN [5] = assay: Post-emergence action against MATIN, 1.28 kg/ha; type: in vivo, Tripleurospermum inodorum (Matricaria inodora); conditions: dosage 1280 g/ha, visual rating about 3 weeks after treatment vs untreated controls (100% = plants died)
# Summary of the method: as §4
# KCHSC [6] = assay: Post-emergence action against KCHSC, 1.28 kg/ha; type: in vivo, Bassia scoparia; conditions: dosage 1280 g/ha, visual rating about 3 weeks after treatment vs untreated controls (100% = plants died)
# Summary of the method: as §4
# KCHSC [7] = assay: Pre-emergence action against KCHSC, 1280 g/ha; type: in vivo, Bassia scoparia; conditions: scored visually after about 3 weeks vs untreated controls (100% = plants have died)
# Summary of the method: as §2
# PHBPU [8] = assay: Pre-emergence action at 320 g/ha against PHBPU; type: in vivo; conditions: visual scoring after about 3 weeks vs untreated controls
# Summary of the method: as §3
Structure (SMILES),Post-emergence action against PHBPU in % (PHBPU [1]),Post-emergence action against SETVI in % (SETVI),"pest or weed control at 1280 g/ha (VERPE; Veronica persica, 504 h)","pest or weed control at 320 g/ha (MATIN [2]; Tripleurospermum inodorum, 504 h)",Post-emergence action against ALOMY (ALOMY [3]),"pest or weed control at 320 g/ha (POLCO; Fallopia convolvulus, 504 h)",Pre-emergence action against ALOMY (ALOMY [4]),"pest or weed control at 320 g/ha (AMARE; Amaranthus retroflexus, 504 h)",Post-emergence action against ABUTH in % (ABUTH),Pre-emergence action against DIGSA (DIGSA),Post-emergence action against ECHCG (ECHCG),Post-emergence action against MATIN (MATIN [5]),Pre-emergence action against VERPE (VERPE),Pre-emergence action against MATIN in % (MATIN [2]),Post-emergence action against POLCO in % (POLCO),Post-emergence action against AMARE in % (AMARE),Post-emergence action against KCHSC (KCHSC [6]),Pre-emergence action against KCHSC (KCHSC [7]),Pre-emergence action against PHBPU in % (PHBPU [8])
"C=CCNC(=O)COc1nn(-c2ccccc2F)c(-c2ccc(F)nc2)c1Br [Example X-001, N-Allyl-2-{[4-bromo-1-(2-fluorophenyl)-5-(6-fluoropyridin-3-yl)-1H-pyrazol-3-yl]oxy}acetamide]",80%,90%,100%,90%,90%,80%,90%,80%,80%,100%,,,,,,,,,
CS(=O)(=O)NC(=O)COc1nn(-c2ccccc2F)c(-c2ccc(F)nc2)c1Br [Example X-004],90%,90%,,,100%,,90%,,80%,90%,100%,90%,90%,90%,80%,90%,,,
C[C@@H](Oc1nn(-c2ccccc2F)c(-c2cncnc2)c1Br)C(=O)O [VI-012],80%,90%,,,,,90%,,80%,90%,100%,,100%,90%,,80%,90%,100%,90%
COC(=O)[C@@H](C)Oc1nn(-c2ccccc2)c(-c2cncnc2)c1Br [VI-013],80%,90%,,,80%,,90%,,80%,100%,100%,100%,100%,90%,,90%,100%,100%,
